Data taken from EP0710486A1, “REMEDY FOR URINATION DISORDER ACCOMPANYING PROSTATIC HYPERTROPHY” (YAMANOUCHI PHARMACEUTICAL CO. LTD., priority 1993, dated 1995).
Like-named read-outs stand apart in the source and are kept apart here. Blank lines part the entries; values can stand above or below the molecule they belong to.

Key:
[1] = molecular target: T1, bovine α1C-receptor subtype (Bos taurus, UniProt P18130); assay: Competitive binding experiment against [³H] prazosin, transfected COS-7 cell membranes
T1 construct: pBCα1c which contains the entire coding region of bovine α1C receptor subtype; expressed in transfected cells; host or cells: COS-7 cells, transient expression, membrane preparation
T1 sequence (P18130 1-466): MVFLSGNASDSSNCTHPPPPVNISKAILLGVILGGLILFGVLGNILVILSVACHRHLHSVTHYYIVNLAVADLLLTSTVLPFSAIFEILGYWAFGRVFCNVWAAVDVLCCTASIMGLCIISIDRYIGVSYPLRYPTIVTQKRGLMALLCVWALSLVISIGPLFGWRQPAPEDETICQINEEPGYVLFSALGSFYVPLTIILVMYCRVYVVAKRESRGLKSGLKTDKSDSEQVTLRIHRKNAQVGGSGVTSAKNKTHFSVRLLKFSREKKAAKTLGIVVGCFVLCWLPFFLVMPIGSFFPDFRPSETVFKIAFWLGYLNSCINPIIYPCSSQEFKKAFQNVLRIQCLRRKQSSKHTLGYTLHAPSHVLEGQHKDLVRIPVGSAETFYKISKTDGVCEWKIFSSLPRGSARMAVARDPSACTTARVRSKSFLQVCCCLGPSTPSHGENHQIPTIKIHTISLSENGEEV

rat α1B-receptor subtype [2] = molecular target: T2, rat α1B-receptor subtype (Rattus norvegicus, UniProt P15823); assay: as above; design: pcDV1Rα1B which contains a 2573 bp fragment containing the entire coding region of α1B receptor subtype cDNA; expressed in transfected cells; host or cells: COS-7 cells, transient expression, membrane preparation
T2 sequence (P15823 1-515): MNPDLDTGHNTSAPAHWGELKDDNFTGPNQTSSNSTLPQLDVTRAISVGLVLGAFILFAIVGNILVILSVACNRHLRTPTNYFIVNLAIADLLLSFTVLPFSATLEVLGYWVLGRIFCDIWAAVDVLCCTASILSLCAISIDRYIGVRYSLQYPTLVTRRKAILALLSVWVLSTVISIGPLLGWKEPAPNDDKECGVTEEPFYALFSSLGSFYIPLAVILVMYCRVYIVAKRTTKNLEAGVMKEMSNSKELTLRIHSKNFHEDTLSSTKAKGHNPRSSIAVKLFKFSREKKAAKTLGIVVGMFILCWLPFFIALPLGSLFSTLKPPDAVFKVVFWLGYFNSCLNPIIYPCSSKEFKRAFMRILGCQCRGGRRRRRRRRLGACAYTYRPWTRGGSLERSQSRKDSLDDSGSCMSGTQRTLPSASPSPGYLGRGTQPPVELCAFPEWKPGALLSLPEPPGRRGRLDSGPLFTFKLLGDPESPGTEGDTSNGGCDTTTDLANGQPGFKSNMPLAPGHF
Procedure: (§1) After 4 days of the transfection, these cells were again suspended in an ice-cold buffer for binding experiment (50 mmol/l Tris, 0.5 mmol/l EDTA, pH 7.5) and homogenized using Tissumeizer for 10 seconds at a maximum speed and then twice for 20 seconds at 2/3 speed. The thus obtained homogenate was centrifuged at 50,000 g for 20 minutes, and the resulting pellet was again suspended in the buffer for binding experiment to a concentration of 0.5 to 2 mg/ml.
(§2) This incubation was terminated by quick filtration under a reduced pressure using Whatman GF/C filter paper. Non-specific binding was defined as binding in the presence of 10 µmol/l of phentolamine. […] The protein content was determined in accordance with the Bradford method using bovine IgG as an standard. In the competitive binding experiment, each compound was evaluated by 3 to 4 tests using at least two separate batches of transfected cells.
(§3) The result was shown as the average value ± SEM of n times of tests.

[3] = molecular target: T3, rat α1A/D-receptor subtype (Rattus norvegicus, UniProt P23944); details: average ± SEM, n=8
T3 sequence (P23944 1-561): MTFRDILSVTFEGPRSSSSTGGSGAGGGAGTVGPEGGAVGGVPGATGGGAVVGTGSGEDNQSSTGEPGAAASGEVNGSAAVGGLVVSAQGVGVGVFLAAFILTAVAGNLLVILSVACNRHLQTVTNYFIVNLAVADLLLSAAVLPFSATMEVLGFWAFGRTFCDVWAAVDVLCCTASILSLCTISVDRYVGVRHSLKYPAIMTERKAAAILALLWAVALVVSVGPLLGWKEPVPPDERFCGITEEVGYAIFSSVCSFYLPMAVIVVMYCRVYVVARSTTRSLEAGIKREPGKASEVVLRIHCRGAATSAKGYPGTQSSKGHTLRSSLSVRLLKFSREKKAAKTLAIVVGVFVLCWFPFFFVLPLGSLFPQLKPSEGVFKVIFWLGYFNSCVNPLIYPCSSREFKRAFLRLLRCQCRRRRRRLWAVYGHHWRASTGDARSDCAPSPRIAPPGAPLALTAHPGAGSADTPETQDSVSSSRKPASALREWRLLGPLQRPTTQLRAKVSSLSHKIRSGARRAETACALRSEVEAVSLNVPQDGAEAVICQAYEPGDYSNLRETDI
Procedure: as §1, §2, §3

rat α1B-receptor subtype [4] = molecular target: T2, rat α1B-receptor subtype; details: average ± SEM, n=5
Procedure: as §1, §2, §3

[5] = human clinical tests (K. Kawabe et al., J. Urol., 1990); cited from earlier work
[6] = read-out: negative logarism values (-log values) of Ki values (converted)

Molecule: CCOc1ccccc1OCCN[C@@H](C)Cc1ccc(OC)c(S(N)(=O)=O)c1 [Compound B, S(+)-5-[2-[[2-(o-ethoxyphenoxy)ethyl]amino]propyl]-2-methoxybenzenesulfonamide]
- Ki [1, 6]: 0.347 nM
- Ki (rat α1B-receptor subtype [2]): 105 nM

- BMAX [3]: 240 ± 87 fmol/mg protein
- BMAX (rat α1B-receptor subtype [4]): 1673 ± 1203 fmol/mg protein
Molecule: [³H] prazosin

Molecule: CCOc1ccccc1OCCN[C@H](C)Cc1ccc(OC)c(S(N)(=O)=O)c1 [Compound A, R(-)-5-[2-[[2-(o-ethoxyphenoxy)ethyl]amino]propyl]-2-methoxybenzenesulfonamide]
- Ki [1]: 0.0229 nM
- influence upon blood pressure [5]: without exerting influence upon blood pressure
- side effects [5]: hardly shows side effects
- treatment of urinary outlet obstruction associated with benign prostatic hyperplasia [5]: useful in treating urinary outlet obstruction associated with benign prostatic hyperplasia
- Ki (rat α1B-receptor subtype [2]; [6]): 0.871 nM
